In ChEMBL document CHEMBL1641539 (Bioorg Med Chem Lett, 2011):

How the values were obtained:
[1] = biological target: Ephrin type-A receptor 5 (Homo sapiens) (UniProt P54756); experiment: Inhibition of human EphA5 at 10 uM after 60 mins by TR-FRET assay; conditions: values are per cent of control
[2] = biological target: Calcium/calmodulin-dependent protein kinase type II subunit delta (Homo sapiens) (UniProt Q13557); experiment: Inhibition of human CaMK2delta at 10 uM after 60 mins by TR-FRET assay; values are per cent of control
[3] = tested on: Serine/threonine-protein kinase Chk2 (Homo sapiens), O96017 [I157T]; experiment: Inhibition of human CHK2 I157T mutant at 10 uM after 60 mins by TR-FRET assay; values are per cent of control
[4] = biological target: Protein kinase C delta type (Homo sapiens) (UniProt Q05655); experiment: Inhibition of human PKCdelta at 10 uM after 60 mins by TR-FRET assay; values are per cent of control
[5] = biological target: Tyrosine-protein kinase Lyn (Mus musculus) (UniProt P25911); experiment: Inhibition of mouse Lyn at 10 uM after 60 mins by TR-FRET assay; values are per cent of control
[6] = biological target: Calcium/calmodulin-dependent protein kinase type IV (Homo sapiens) (UniProt Q16566); experiment: Inhibition of human CaMK4 at 10 uM after 60 mins by TR-FRET assay; values are per cent of control
Calcium/calmodulin-dependent protein kinase type IV (Homo sapiens), sequence (Q16566 whole entry): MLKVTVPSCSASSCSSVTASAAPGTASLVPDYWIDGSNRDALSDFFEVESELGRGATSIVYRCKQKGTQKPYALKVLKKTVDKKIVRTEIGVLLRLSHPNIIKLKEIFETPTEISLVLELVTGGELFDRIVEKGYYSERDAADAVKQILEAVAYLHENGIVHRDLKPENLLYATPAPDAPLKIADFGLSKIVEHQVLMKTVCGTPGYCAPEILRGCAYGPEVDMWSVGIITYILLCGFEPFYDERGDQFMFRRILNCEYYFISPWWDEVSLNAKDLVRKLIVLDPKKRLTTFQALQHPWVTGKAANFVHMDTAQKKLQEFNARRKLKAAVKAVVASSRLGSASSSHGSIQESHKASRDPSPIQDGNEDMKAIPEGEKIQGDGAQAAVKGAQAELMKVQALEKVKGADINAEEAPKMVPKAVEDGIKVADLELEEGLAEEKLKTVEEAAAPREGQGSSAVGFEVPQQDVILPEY

[7] = biological target: Platelet-derived growth factor receptor alpha (Homo sapiens) (UniProt P16234); experiment: Inhibition of human PDGFRalpha at 10 uM after 60 mins by TR-FRET assay; values are per cent of control
[8] = biological target: MAP kinase-activated protein kinase 2 (Homo sapiens) (UniProt P49137); experiment: Inhibition of human MAPKAP-K2 at 10 uM after 60 mins by TR-FRET assay; conditions: values are per cent of control
MAP kinase-activated protein kinase 2 (Homo sapiens), sequence (P49137 whole entry, looked up): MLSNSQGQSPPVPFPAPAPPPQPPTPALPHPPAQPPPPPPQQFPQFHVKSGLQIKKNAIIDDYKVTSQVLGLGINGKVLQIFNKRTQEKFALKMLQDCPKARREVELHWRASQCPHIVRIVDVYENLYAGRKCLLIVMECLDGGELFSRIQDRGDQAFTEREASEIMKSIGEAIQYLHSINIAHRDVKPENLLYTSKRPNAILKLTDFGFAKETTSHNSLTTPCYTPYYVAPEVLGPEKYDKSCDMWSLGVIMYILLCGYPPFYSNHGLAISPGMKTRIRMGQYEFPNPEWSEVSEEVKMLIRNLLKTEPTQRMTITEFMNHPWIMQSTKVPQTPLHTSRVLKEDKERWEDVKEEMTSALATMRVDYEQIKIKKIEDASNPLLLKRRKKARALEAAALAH

[9] = biological target: Tyrosine-protein kinase Fgr (Homo sapiens) (UniProt P09769); experiment: Inhibition of human Fgr at 10 uM after 60 mins by TR-FRET assay; values are per cent of control
[10] = biological target: Serine/threonine-protein kinase DCLK2 (Homo sapiens) (UniProt Q8N568); experiment: Inhibition of human DCAMKL2 at 10 uM after 60 mins by TR-FRET assay; values are per cent of control
[11] = tested on: Receptor-type tyrosine-protein kinase FLT3 (Homo sapiens), P36888 [D835Y]; experiment: Inhibition of human Flt3 D835Y mutant at 10 uM after 60 mins by TR-FRET assay; values are per cent of control
[12] = tested on: Tyrosine-protein kinase BTK (Homo sapiens), Q06187 [R28H]; experiment: Inhibition of human BTK R28H mutant at 10 uM after 60 mins by TR-FRET assay; values are per cent of control
[13] = biological target: CDK9/cyclin T1 (Homo sapiens) (UniProt O60563+P50750); experiment: Inhibition of human CDK9/cyclin T1 at 10 uM after 60 mins by TR-FRET assay; values are per cent of control
[14] = biological target: Protein kinase C alpha type (Homo sapiens) (UniProt P17252); experiment: Inhibition of human PKCalpha at 10 uM after 60 mins by TR-FRET assay; values are per cent of control
[15] = biological target: RAC-alpha serine/threonine-protein kinase (Homo sapiens) (UniProt P31749); experiment: Inhibition of human PKBalpha at 10 uM after 60 mins by TR-FRET assay; values are per cent of control
RAC-alpha serine/threonine-protein kinase (Homo sapiens), sequence (P31749 whole entry): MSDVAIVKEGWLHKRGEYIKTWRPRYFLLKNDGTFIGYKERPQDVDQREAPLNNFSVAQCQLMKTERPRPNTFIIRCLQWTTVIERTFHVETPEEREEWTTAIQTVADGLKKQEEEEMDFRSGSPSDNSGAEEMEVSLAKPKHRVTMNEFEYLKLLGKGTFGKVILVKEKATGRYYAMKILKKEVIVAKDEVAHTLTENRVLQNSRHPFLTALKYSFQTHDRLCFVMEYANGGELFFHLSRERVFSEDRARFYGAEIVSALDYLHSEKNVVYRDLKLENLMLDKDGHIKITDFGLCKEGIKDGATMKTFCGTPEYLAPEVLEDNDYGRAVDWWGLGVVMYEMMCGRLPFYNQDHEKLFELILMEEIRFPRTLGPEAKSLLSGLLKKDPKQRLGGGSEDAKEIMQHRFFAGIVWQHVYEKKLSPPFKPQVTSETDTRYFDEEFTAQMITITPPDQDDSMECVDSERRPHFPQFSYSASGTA

[16] = biological target: Macrophage colony-stimulating factor 1 receptor (Homo sapiens) (UniProt P07333); experiment: Inhibition of human Fms at 10 uM after 60 mins by TR-FRET assay; values are per cent of control
[17] = biological target: Ephrin type-A receptor 1 (Homo sapiens) (UniProt P21709); experiment: Inhibition of human EphA1 at 10 uM after 60 mins by TR-FRET assay; values are per cent of control
[18] = biological target: Serine/threonine-protein kinase SIK1 (Homo sapiens) (UniProt P57059); experiment: Inhibition of human SIK at 10 uM after 60 mins by TR-FRET assay; conditions: values are per cent of control
[19] = biological target: Ephrin type-A receptor 7 (Homo sapiens) (UniProt Q15375); experiment: Inhibition of human EphA7 at 10 uM after 60 mins by TR-FRET assay; values are per cent of control
[20] = biological target: Ribosomal protein S6 kinase alpha-1 (Rattus norvegicus) (UniProt Q63531); experiment: Inhibition of rat Rsk1 at 10 uM after 60 mins by TR-FRET assay; values are per cent of control
[21] = biological target: Receptor-interacting serine/threonine-protein kinase 2 (Homo sapiens) (UniProt O43353); experiment: Inhibition of human RIPK2 at 10 uM after 60 mins by TR-FRET assay; values are per cent of control
Receptor-interacting serine/threonine-protein kinase 2 (Homo sapiens), sequence (O43353 whole entry): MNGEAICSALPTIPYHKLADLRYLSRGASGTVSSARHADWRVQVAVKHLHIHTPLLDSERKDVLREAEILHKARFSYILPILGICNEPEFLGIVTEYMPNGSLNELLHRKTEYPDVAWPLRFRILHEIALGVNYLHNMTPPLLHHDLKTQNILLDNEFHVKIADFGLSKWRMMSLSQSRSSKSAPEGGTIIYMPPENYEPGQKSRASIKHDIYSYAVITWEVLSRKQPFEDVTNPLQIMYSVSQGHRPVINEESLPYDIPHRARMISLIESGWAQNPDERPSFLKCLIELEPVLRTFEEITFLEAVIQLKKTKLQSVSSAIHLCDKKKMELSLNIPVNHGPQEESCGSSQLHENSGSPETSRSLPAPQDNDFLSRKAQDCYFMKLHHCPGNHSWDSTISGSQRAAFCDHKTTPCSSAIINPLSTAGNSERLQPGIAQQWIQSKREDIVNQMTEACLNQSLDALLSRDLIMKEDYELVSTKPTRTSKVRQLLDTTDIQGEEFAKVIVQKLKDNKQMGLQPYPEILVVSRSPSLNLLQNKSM

[22] = biological target: Receptor tyrosine-protein kinase erbB-4 (Homo sapiens) (UniProt Q15303); experiment: Inhibition of human ErbB4 at 10 uM after 60 mins by TR-FRET assay; conditions: values are per cent of control
[23] = biological target: Mitogen-activated protein kinase 14 (Homo sapiens, UniProt Q16539); experiment: Inhibition of human SAPK2a at 10 uM after 60 mins by TR-FRET assay; conditions: values are per cent of control
[24] = biological target: Protein kinase C beta type (Homo sapiens) (UniProt P05771); experiment: Inhibition of human PKCbeta1 at 10 uM after 60 mins by TR-FRET assay; values are per cent of control
[25] = biological target: Macrophage-stimulating protein receptor (Homo sapiens) (UniProt Q04912); experiment: Inhibition of human Ron at 10 uM after 60 mins by TR-FRET assay; conditions: values are per cent of control
Macrophage-stimulating protein receptor (Homo sapiens), sequence (Q04912 25-304 limits assumed): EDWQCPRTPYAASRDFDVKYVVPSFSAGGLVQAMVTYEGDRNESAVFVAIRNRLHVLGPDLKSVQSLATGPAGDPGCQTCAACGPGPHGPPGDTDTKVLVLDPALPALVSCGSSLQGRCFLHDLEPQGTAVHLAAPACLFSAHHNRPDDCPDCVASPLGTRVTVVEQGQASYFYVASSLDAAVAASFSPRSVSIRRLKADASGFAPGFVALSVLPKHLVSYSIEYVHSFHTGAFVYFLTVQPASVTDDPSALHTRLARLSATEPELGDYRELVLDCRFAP
Macrophage-stimulating protein receptor (Homo sapiens), sequence (Q04912 310-1400 limits assumed): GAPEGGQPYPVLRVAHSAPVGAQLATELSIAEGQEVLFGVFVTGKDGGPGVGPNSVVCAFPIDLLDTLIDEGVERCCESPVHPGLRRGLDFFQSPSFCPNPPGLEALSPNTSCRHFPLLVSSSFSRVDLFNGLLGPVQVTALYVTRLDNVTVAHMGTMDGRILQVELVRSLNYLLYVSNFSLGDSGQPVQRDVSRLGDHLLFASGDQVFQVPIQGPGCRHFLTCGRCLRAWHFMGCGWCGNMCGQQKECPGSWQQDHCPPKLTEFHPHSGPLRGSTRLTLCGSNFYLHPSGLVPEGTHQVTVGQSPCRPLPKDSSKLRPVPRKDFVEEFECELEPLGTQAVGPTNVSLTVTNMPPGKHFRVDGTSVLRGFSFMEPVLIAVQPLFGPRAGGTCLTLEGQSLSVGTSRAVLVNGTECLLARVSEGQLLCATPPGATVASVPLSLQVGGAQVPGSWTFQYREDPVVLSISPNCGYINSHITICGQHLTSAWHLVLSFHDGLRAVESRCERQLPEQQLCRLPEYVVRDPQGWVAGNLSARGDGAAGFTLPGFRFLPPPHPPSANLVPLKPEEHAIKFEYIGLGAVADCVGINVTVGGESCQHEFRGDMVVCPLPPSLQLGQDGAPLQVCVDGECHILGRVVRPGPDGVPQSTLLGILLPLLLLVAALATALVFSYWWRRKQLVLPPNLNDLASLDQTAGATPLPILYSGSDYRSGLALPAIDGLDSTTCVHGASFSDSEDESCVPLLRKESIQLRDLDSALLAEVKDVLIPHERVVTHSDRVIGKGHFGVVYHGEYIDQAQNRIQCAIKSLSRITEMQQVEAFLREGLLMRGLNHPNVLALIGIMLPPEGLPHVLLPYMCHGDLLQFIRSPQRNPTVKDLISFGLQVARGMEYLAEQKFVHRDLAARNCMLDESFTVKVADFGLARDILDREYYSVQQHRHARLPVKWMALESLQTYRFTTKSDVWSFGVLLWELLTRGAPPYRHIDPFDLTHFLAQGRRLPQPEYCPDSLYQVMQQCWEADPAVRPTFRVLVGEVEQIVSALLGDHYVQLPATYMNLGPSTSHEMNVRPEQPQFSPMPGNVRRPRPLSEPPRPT

[26] = biological target: Myosin light chain kinase, smooth muscle (Homo sapiens) (UniProt Q15746); experiment: Inhibition of human MLCK at 10 uM after 60 mins by TR-FRET assay; values are per cent of control
[27] = biological target: Serine/threonine-protein kinase NLK (Homo sapiens) (UniProt Q9UBE8); experiment: Inhibition of human NLK at 10 uM after 60 mins by TR-FRET assay; values are per cent of control
Serine/threonine-protein kinase NLK (Homo sapiens), sequence (Q9UBE8 whole entry): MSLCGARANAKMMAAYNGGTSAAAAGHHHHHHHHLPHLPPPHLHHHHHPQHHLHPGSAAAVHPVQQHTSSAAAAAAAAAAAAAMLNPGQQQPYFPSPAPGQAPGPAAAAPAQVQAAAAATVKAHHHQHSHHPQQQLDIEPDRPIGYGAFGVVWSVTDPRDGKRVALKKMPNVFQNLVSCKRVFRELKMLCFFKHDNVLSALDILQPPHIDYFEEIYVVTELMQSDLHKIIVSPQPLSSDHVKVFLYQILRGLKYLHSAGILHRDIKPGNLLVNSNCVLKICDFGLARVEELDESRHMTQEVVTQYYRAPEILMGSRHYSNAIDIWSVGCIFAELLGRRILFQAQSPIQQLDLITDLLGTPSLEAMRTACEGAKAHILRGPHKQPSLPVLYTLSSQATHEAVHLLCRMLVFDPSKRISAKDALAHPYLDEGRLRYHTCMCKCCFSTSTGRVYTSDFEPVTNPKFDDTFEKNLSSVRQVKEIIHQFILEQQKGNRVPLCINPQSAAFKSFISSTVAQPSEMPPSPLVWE

[28] = biological target: SRSF protein kinase 2 (Homo sapiens) (UniProt P78362); experiment: Inhibition of human SRPK2 at 10 uM after 60 mins by TR-FRET assay; values are per cent of control

Ephrin type-A receptor 5 (Homo sapiens), sequence (P54756 whole entry): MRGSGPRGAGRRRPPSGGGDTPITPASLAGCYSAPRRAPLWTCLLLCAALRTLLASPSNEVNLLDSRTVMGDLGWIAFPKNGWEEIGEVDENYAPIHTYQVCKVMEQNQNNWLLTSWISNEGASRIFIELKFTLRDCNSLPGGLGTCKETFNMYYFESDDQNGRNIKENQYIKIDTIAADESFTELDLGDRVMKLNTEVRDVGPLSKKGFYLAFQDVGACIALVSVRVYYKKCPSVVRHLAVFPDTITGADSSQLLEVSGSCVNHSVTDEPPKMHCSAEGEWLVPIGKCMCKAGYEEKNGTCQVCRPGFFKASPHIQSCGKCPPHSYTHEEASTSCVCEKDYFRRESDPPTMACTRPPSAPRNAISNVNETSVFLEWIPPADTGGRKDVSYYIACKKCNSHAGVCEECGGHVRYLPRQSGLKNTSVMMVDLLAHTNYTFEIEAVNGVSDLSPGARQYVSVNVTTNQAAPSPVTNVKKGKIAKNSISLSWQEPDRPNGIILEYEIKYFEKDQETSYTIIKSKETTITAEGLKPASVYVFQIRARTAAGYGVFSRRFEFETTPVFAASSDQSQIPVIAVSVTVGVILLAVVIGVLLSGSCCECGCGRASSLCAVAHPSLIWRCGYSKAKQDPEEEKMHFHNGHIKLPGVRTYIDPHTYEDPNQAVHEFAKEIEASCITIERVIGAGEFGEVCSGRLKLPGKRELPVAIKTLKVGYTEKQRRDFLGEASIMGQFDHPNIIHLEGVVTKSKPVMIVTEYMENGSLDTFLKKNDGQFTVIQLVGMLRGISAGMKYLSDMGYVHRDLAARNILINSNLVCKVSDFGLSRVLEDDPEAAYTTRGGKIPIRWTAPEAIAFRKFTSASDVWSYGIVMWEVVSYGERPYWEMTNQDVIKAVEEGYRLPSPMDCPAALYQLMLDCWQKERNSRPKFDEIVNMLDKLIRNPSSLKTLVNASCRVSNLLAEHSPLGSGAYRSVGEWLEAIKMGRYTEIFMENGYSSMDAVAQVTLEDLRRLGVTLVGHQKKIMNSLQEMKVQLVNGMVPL

S=c1[nH]nc(-c2ccncc2)n1-c1ccc2ccccc2c1
residual activity [1]: 110% | residual activity [2]: 106% | residual activity [3]: 108% | residual activity [4]: 111% | residual activity [5]: 100% | residual activity [6]: 112% | residual activity [7]: 99% | residual activity [8]: 106% | residual activity [9]: 99% | residual activity [10]: 112% | residual activity [11]: 99% | residual activity [12]: 113% | residual activity [13]: 110% | residual activity [14]: 93% | residual activity [15]: 99% | residual activity [16]: 96% | residual activity [17]: 103% | residual activity [18]: 117% | residual activity [19]: 65% | residual activity [20]: 103% | residual activity [21]: 111% | residual activity [22]: 99% | residual activity [23]: 71% | residual activity [24]: 109% | residual activity [25]: 110% | residual activity [26]: 103% | residual activity [27]: 114% | residual activity [28]: 110%
